# Reference: patent US8710097B2, “Flavonoid dimers and methods of making and using such” (The Hong Kong Polytechnic University, priority 2006, dated 2014)
# Where two headings read alike, the source gives them in different places.
# Assays:
# [1] = molecular target: NBD2 cytosolic domain of mouse P-gp (Mus musculus, UniProt P06795); conditions: reported in literature; cited from earlier work
# leukemic K562/R7 cells = conditions: literature; cited from earlier work
# [2] = tested on: SSG-resistant L. donovani Ld39 promastigotes; assay: microbe, parasite or virus in culture; format: cell-based, Leishmania donovani; conditions: for SSG resistance modulating activity: 12 μM, FIG. 14B; for IC50: read-out: IC50(μM) of synthetic flavonoid, Ld39
# Experimental: (§1) Cell lines and Cell Culture. Promastigotes of Leishmania enriettii (LePentR50, Le wild type, LeMDR1 −/− and LeMDR1-overexpressed LeV160 mutants) and Leishmania donovani (LdAG83, Ld2001 and Ld39) were employed in this study. The former is a natural infective strain of guinea pig and the latter is a clinical strain, which may cause visceral leishmaniasis in human. Both strains were cultured in Schneider's Drosophila Medium (Invitrogen), pH 6.9 supplemented with 10% (v/v) heat inactivated fetal calf serum (Hyclone) with 4 mM glutamine (Sigma) and 25 μg/mL gentamicin solution (Invitrogen), at 27° C. for 4 days (Cloning and functional analysis of an extrachromosomally amplified multidrug resistance-like gene in Leishmania enriettii. Mol. Biochem. Parasitol 1993, 60, 195-208). […]
# (§2) The viability of promastigotes was determined by the Cell Titer 96® Aqueous Assay (Promega) that employs a tetrazolium compound (MTS) and electron coupling reagent, phenazine methosulfate (PMS). Promastigotes were seeded into 96-well flat bottom microtiter plate at 1×10^5 cells per well in a final volume of 100 μL medium. To determine the cytotoxic effects of flavonoid dimers to the parasites, various concentrations of flavonoid dimers were added to the promastigotes. To determine the reversal effects of flavonoid dimers with different spacer lengths, various concentrations of antileishmanial drugs, one of pentamidine or SSG, vinblastine and puromycin was added to the wells with or without flavonoid dimers. The parasites were incubated at 27° C. for 72 hrs. Each concentration of antileishmanials with or without the flavonoid dimers was tested in triplicates in each experiment. A 2 mg/mL MTS and 0.92 mg/mL PMS were mixed at a ratio of 20:1 (MTS: PMS). After 72-hr incubation, 10 μL of MTS:PMS mixture was added into each well of microtiter plate. The plate was then incubated at 27° C. for 4 hrs for color development. After 4 hrs of incubation, the OD values were determined at 490 nm using automatic microtiter plate reader (Bio-Rad).
# [3] = tested on: wild type L. donovani LdAG83 promastigotes; assay: Leishmania cell viability (MTS) assay; format: cell-based, Leishmania donovani; conditions: for IC50: read-out: IC50(μM) of synthetic flavonoid, LdAG83
# Experimental: as §1, §2
# [4] = tested on: tested MDR cell lines (drug resistant breast cancer and leukemia cells); format: cell-based; conditions: tested MDR cell lines; 10 μM
# From the text: Cell proliferation assay.
# MDA435/LCC6 MDR cells [5] = assay: cells; conditions: MDA435/LCC6 MDR; for doxorubicin resistance reversal: monomers; for reversing effect on taxol resistance: monomers at 10 μM
# Experimental: (§3) MDA435/LCC6 and P388 (both parent and MDR subtype) were maintained in DMEM and RPMI 1640 culture medium supplemented with 10% FBS, respectively. RPMI 1640 media also contained 100 units/ml penicillin and 100 μg/ml streptomycin. Cells were cultured at 37° C. in a humidified atmosphere with 5% CO2. A solution of 0.05% trypsin-EDTA was used to detach the MDA435/LCC6 (both wild type and MDR subtype) cells.
# (§4) Cell proliferation assay. MDA435/LCC6 and P388 (both parent and MDR subtype) cells were seeded at 2000 and 5000 cells per well, respectively, in 96-well plates. Varying concentrations of anticancer drugs (Doxorubicin, Daunorubicin, Vincristine, Vinblastine, taxol, Mitoxantrone) with or without the flavonoid dimers were added in a final volume of 200 μl and cells were grown for 4 and 3 days for MDA435/LCC6 and P388 (both parent and MDR subtype) cells, respectively. For MDA435/LCC6 (both parent and MDR subtype), the corresponding drugs were added after cell attachment (24 hr incubation). To measure cell proliferation, the cell Titer 960 Aqueous Assay (Promega) was used according to the manufacturer's instructions. Briefly, MTS (2 mg/ml) and PMS (0.92 mg/ml) were mixed in a ratio of 20:1. 30 μl MTS/PMS mixture was added into each well and incubated for 2 hours at 37° C. Optical absorbance at 490 nm was then recorded using an ELISA microtiter plate reader (Bio-Rad). Each experiment was done at least in triplicate and repeated twice. Cytotoxicity of the anticancer drugs was expressed as the fraction of the cells survived relative to the untreated DMSO (0.05%) solvent controls.
# MDA435/LCC6 is an estrogen-independent human breast cancer cell line. Its MDR subtype (MDA435/LCC6 MDR) was generated by transducing a retroviral vector directing the constitutive expression of the human MDR1 cDNA, producing a cell line with a classical MDR1 resistance pattern (MDA435/LCC6 and MDA435/LCC6MDR1: ascites models of human breast cancer. Br J Cancer 1996, 73, 154-161). The ability of the apigenin dimers of this invention to reverse taxol resistance in MDA435/LCC6 MDR cells were tested. […] Apigenin monomers 10a and 10b at 10 μM were used as the negative controls.
# [6] = tested on: pentamidine-resistant L. enriettii LePentR50 promastigotes; assay: microbe, parasite or virus in culture; conditions: for pentamidine sensitization: LePentR50, FIG. 18A
# Experimental: (§5) Cell lines and Cell Culture. Promastigotes of Leishmania enriettii (LePentR50, Le wild type, LeMDR1 −/− and LeMDR1-overexpressed LeV160 mutants) and Leishmania donovani (LdAG83, Ld2001 and Ld39) were employed in this study. The former is a natural infective strain of guinea pig and the latter is a clinical strain, which may cause visceral leishmaniasis in human. Both strains were cultured in Schneider's Drosophila Medium (Invitrogen), pH 6.9 supplemented with 10% (v/v) heat inactivated fetal calf serum (Hyclone) with 4 mM glutamine (Sigma) and 25 μg/mL gentamicin solution (Invitrogen), at 27° C. for 4 days (Cloning and functional analysis of an extrachromosomally amplified multidrug resistance-like gene in Leishmania enriettii. Mol. Biochem. Parasitol 1993, 60, 195-208).
# (§6) Promastigotes of LeV160 were culture in the presence of 160 μg/mL vinblastine. No pentamidine and vinblastine (Sigma) was added to the Le wild type and LeMDR1 −/− mutant.
# as §2
# P388/ADR cells [7] = assay: cells
# Experimental: as §3, §4
# P388/ADR cells [8] = assay: Doxorubicin accumulation; format: cell-based, murine; conditions: monomer 10b at double concentration of the dimers, FIG. 11A
# Experimental: (§7) For P388 (both parent and MDR subtype) cells, 1 ml (10^5 cells) confluent cells were aliquot into Eppendorf tube and pre-incubated with flavone dimers for 30 min at 37° C. Doxorubicin (final concentration of 10 μM) was then added and incubated for 2 h at 37° C. at a final concentration of 10 μM. The cell pellets were washed 3 times with cold PBS by using an Eppendorf micro-centrifuge and lysed with 0.3N HCL in 50% ethanol, and sonicated for 30s. After centrifugation at 10000 rpm/min for 3 min, the supernatant was saved. The fluorescence of doxorubicin was measured using a spectrofluorometer (λexcite=470 nm, λemit=585 nm).
# MDA435/LCC6 MDR cells [9] = assay: Doxorubicin accumulation; format: cell-based, human; conditions: LCC6 MDR; apigenin dimers 10 μM; 20 μM doxorubicin, 2 h
# Experimental: Doxorubicin accumulation. 2.5 ml (10^5 cells/ml) MDA435/LCC6 (both parent and MDR subtype) cells were seeded in each well of 6-well plates. At confluence, culture medium was removed. 2 ml of fresh DMEM with modulators was added and cells were incubated for 30 min at 37° C. Doxorubicin (final concentration of 20 μM) was then added and incubated for 2 h at 37° C. The cells were then harvested by trypsinization.
# as §7
# In order to understand whether the modulating activity for various anticancer drugs by different dimers is due to their different ability to modulate P-gp mediated drug efflux, their effects on the accumulation of doxorubicin in both MDA435/LCC6 sensitive and resistant cells were investigated. Doxorubicin was a fluorescent drug substrate of P-gp and was used in this experiment to monitor the P-gp mediated drug efflux. Accumulation of doxorubicin in these cells was determined in the presence or absence of apigenin dimers (10 μM) and monomer (20 μM). Verapamil was used as a positive control.
# MDA435/LCC6 cells = assay: Doxorubicin accumulation; format: cell-based, human; conditions: LCC6, basal P-gp; dimers 10 μM, monomer 20 μM
# Experimental: Doxorubicin accumulation. […] At confluence, culture medium was removed. 2 ml of fresh DMEM with modulators was added and cells were incubated for 30 min at 37° C. Doxorubicin (final concentration of 20 μM) was then added and incubated for 2 h at 37° C. The cells were then harvested by trypsinization.
# P388 cells = assay: Doxorubicin accumulation; format: cell-based, murine
# Experimental: as §7
# [10] = tested on: LeMDR1 overexpressed L. enriettii (LeV160); assay: Leishmania cell viability (MTS) assay; format: cell-based, Leishmania enriettii
# From the text: (§8) Cell lines and Cell Culture.
# [11] = tested on: LeMDR1 knockout (LeMDR1 −/−) L. enriettii; assay: Leishmania cell viability (MTS) assay; format: cell-based, Leishmania enriettii
# From the text: as §8
# [12] = tested on: wild type L. enriettii (Le); assay: Leishmania cell viability (MTS) assay; format: cell-based, Leishmania enriettii
# Experimental: as §5, §6
# as §2, with “After 72-hr incubation, 10 μL of MTS:PMS mixture was added into each well of microtiter plate. The plate was then incubated at 27° C. for 4 hrs for color development.” left out
# [13] = Leishmania enriettii, 72 h, read-out: IC50(μM) of synthetic flavonoid, LePentR50, cytotoxicity of compound alone, 72 hrs
# [14] = Leishmania enriettii, read-out: IC50 of pentamidine (μg/ml), no modulator
# [15] = cytotoxicity of compound alone, 72 hrs
# Chain of NBD2 cytosolic domain of mouse P-gp (P06795 1033-1271 limits assumed): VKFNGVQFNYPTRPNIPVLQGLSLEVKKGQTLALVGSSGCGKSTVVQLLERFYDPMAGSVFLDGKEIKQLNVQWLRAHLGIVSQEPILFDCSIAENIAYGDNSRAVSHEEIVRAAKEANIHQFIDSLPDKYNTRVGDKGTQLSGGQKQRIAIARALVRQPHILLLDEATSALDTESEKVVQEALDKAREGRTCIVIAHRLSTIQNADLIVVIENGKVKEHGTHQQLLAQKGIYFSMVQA
molecule,measurement,setting,value
O=c1c(O)c(-c2ccc(O)cc2)oc2cc(O)cc(O)c12 [kaempferol],binding to NBD2 cytosolic domain of mouse P-gp,[1],bind directly
dehydrosilybin,binding to NBD2 cytosolic domain of mouse P-gp,[1],bind directly
CC(C)=CCc1c(O)cc(O)c2c(=O)cc(-c3ccccc3)oc12 [8-Prenylchrysin],inhibition of P-gp mediated drug efflux,leukemic K562/R7 cells,inhibited P-gp mediated drug efflux
O=c1c(O)c(-c2ccc(O)c(O)c2)oc2cc(O)cc(O)c12 [quecetin],binding to NBD2 cytosolic domain of mouse P-gp,[1],bind directly
"O=c1cc(-c2ccc(OCCOCCOCCOCCO)cc2)oc2cc(O)cc(O)c12 [Compound 10b, 12-[4′-((5,7-dihydroxy)-4H-chromen-4-on-2-yl)phenyl]-3,6,9,12-tetraoxadodecan-1-ol]",SSG resistance modulating activity,[2]; Ld39,did not give any significant modulating activity
same,IC50,"[2]; Leishmania donovani, 72 h",> 200 µM
same,IC50,"[3]; Leishmania donovani, 72 h",> 200 µM
same,anticancer activity of monomers alone,[4],no anticancer activity
same,doxorubicin resistance reversal,MDA435/LCC6 MDR cells [5],ineffective reversers
same,reversing effect on taxol resistance,MDA435/LCC6 MDR cells [5],little reversing effect
same,IC50,[6]; [13],> 200 µM
same,modulatory activity on doxorubicin and daunorubicin cytotoxicity,P388/ADR cells [7],little modulatory activity
same,activity on doxorubicin accumulation,P388/ADR cells [8],little or no activity at all
CC(C)=CCc1c(O)cc2oc(-c3ccccc3)cc(=O)c2c1O [6-Prenylchrysin],inhibition of P-gp mediated drug efflux,leukemic K562/R7 cells,inhibited P-gp mediated drug efflux
"COc1ccc(CCN(C)CCCC(C#N)(c2ccc(OC)c(OC)c2)C(C)C)cc1OC (stereo not drawn) [Verapamil, reference compound]","enhancement of doxorubicin accumulation, folds of control",MDA435/LCC6 MDR cells [9],6.2 folds
same,pentamidine sensitization,[6],less than half-fold sensitization
same,accumulation of doxorubicin in LCC6,MDA435/LCC6 cells,unaffected
same,doxorubicin accumulation in parent sensitive cells,P388 cells,almost unaffected
"O=c1cc(-c2ccc(OCCOCCOCCOc3ccc(-c4cc(=O)c5c(O)cc(O)cc5o4)cc3)cc2)oc2cc(O)cc(O)c12 [Compound 9c, 1,10-Bis[4′-((5,7-dihydroxy)-4H-chromen-4-on-2-yl)phenyl]-1,4,7,10-tetraoxadecane]",reduction of SSG resistance level,"[2]; Ld39, 4 μM, FIGS. 17A and 17B",back to the level of the sensitive strain
same,SSG sensitization,"[2]; Ld39, FIG. 18B",3.1 fold
same,IC50,"[2]; Leishmania donovani, 72 h",11 ± 0.7 µM
same,"enhancement of doxorubicin accumulation, folds of control",MDA435/LCC6 MDR cells [9],4.5 folds
same,IC50,"[3]; Leishmania donovani, 72 h",8 ± 0.3 µM
same,modulatory effect on SSG sensitivity,"[3]; SSG-sensitive wild type LdAG83, FIG. 14D",no modulatory effect
same,IC60 of doxorubicin with modulator,"MDA435/LCC6 MDR cells [5]; 5 μM dimer, FIG. 5",1.3 µM
same,"reduction of IC60 of doxorubicin, RF","MDA435/LCC6 MDR cells [5]; 5 μM dimer, FIG. 5",about 3.6 RF
same,pentamidine sensitization,[6],about 2.7 fold
same,IC50,[6]; [13],> 200 µM
same,decrease of IC50 of pentamidine,[10]; LeV160,about 1.8 fold
same,pentamidine sensitization,[11]; LeMDR1 −/−,3.8 fold
same,activity on doxorubicin accumulation,P388/ADR cells [8],comparable activity to 9d
"N=C(N)c1ccc(OCCCCCOc2ccc(C(=N)N)cc2)cc1 [pentamidine, reference compound]","IC50 of pentamidine (μg/ml), no modulator",[12]; Le wild type,12.0 ± 0.8 µg/mL
same,IC50,"[12]; Leishmania enriettii, read-out: IC50 of pentamidine (μg/ml), no modulator, Le wild type",~8.7 µg/mL
same,survival of LePentR50,[6]; 60 μg/ml pentamidine alone,94.0±2.3 % of untreated
same,IC50,"[6]; Leishmania enriettii, read-out: IC50 of pentamidine alone, LePentR50, no modulator (DMSO)",117 µg/mL
same,IC50,[10]; [14],9 ± 0.1 µg/mL
same,IC50,[11]; [14],18.9 ± 0.8 µg/mL
"O=c1cc(-c2ccc(OCCOCCOCCO)cc2)oc2cc(O)cc(O)c12 [Compound 10a, 9-[4′-((5,7-dihydroxy)-4H-chromen-4-on-2-yl)phenyl]-3,6,9,-trioxanonan-1-ol]",SSG resistance modulating activity,[2]; Ld39,did not give any significant modulating activity
same,IC50,[2]; [15],> 200 µM
same,IC50,[3]; [15],> 200 µM
same,anticancer activity of monomers alone,[4],no anticancer activity
same,doxorubicin resistance reversal,MDA435/LCC6 MDR cells [5],ineffective reversers
same,reversing effect on taxol resistance,MDA435/LCC6 MDR cells [5],little reversing effect
same,IC50,"[6]; read-out: IC50(μM) of synthetic flavonoid, LePentR50, cytotoxicity of compound alone, 72 hrs",> 200 µM
same,modulatory activity on doxorubicin and daunorubicin cytotoxicity,P388/ADR cells [7],little modulatory activity
